Calls of active or inactive are those of the source.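 The calls were made as follows: active = blocks the choline transporter at some tested dose and yields a fitted dose response curve; inconclusive = no clear call, values can overlap the other calls; inactive = no blocking at any dose or no curve.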
target: High affinity choline transporter 1 (Homo sapiens) (UniProt Q9GZV3); assay: CHT inhibitors, dose response, cell-based, 10-point CRC, membrane potential dye (AID 588401); conditions: HEK293-CHT, choline-induced depolarization, at 25 µM (top of the series)
Sequence (Q9GZV3 whole entry, looked up): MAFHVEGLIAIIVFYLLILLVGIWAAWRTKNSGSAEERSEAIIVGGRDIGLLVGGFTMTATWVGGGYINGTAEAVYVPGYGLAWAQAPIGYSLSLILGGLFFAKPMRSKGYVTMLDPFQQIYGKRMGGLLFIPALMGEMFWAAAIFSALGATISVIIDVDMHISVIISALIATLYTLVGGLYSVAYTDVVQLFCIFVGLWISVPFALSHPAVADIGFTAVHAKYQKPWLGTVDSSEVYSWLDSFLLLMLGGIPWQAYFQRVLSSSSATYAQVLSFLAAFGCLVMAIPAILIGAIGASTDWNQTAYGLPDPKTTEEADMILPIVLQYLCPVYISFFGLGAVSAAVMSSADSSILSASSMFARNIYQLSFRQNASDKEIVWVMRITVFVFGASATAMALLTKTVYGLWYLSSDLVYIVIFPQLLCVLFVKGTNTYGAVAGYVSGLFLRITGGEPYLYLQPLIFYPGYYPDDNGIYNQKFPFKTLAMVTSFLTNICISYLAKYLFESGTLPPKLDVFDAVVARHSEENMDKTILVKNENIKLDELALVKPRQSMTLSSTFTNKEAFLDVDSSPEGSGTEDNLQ

Compound | inhibition (negative values = inhibition)
C=CCn1c(O)c(C(CC)=NC(C)c2ccccc2)c(=O)[nH]c1=O (stereo not drawn) | inactive

same assay, conditions: HEK293-CHT, choline-induced depolarization, at 25 µM (top of the series), cells express LV-AA mutant CHT

Compound | inhibition (negative values = inhibition)
O=C(CSc1nc2ccccc2[nH]1)c1ccc2c(c1)OCO2 | inactive
COc1ccc(C/C(O)=C(\C#N)c2nc3ccccc3s2)cc1 | inactive
O=C(C1CCCN(c2ncnc3c2nc2n3CCCCC2)C1)N1CCN(c2ccc(Cl)cc2)CC1 (stereo not drawn) | inactive
O=C(Nc1ccccc1C(=O)NCCCN1CCOCC1)c1ccc(F)cc1 | inactive
CC1(C)CC2CC(C)(CN2c2ncnc3ccccc23)C1 (stereo not drawn) | inactive
O=C(CSc1nnc(-c2ccco2)n1Cc1ccco1)NCc1cccs1 | inactive
Cc1ccc(S(=O)(=O)N2[C@@H](c3ccc(Cl)cc3)C(C(=O)O)=CC[C@H]2c2ccc(Cl)cc2)cc1 | inactive
O=C(Nc1ccn(Cc2ccccc2)n1)c1n[nH]c([N+](=O)[O-])c1Cl | inactive
Cc1ccc(-n2cc(CN3CCN(Cc4nccn4C)CC3)c(-c3ccc(F)cc3)n2)cc1 | inactive
CC(C)Nc1nc(Cl)nc(N(C#N)CN2C(=O)c3ccccc3C2=O)n1 | inactive
CC(SCc1ccccc1)C(=O)N/N=C/c1ccc(OCC(=O)NCc2ccco2)cc1 (stereo not drawn) | inactive
NC(=S)N/N=C1/CCSc2ccc3ccccc3c21 | inactive
O=C(N/N=C/c1ccsc1)c1c[nH]c2ccccc12 | inactive
CCOc1ccc(/C=C2\SC(=S)N(NS(=O)(=O)c3ccccc3)C2=O)cc1OC | inactive
CCc1cc2c(N3CCN(c4nnc(CC)s4)CC3)ncnc2s1 | inactive
COCCCNC(=O)c1ccc(OC)c(OC2CCN(C(C)C)CC2)c1 | inactive
CCCc1ccc(OCc2ccc(C(=O)NCc3cccnc3)o2)c(OC)c1 | inactive
N=c1n(Cc2ccccc2)c2ccccc2n1CC(O)COc1ccccc1 (stereo not drawn) | inactive
O=C(c1c(O)c2ccccc2oc1=O)C1CCCCC1 | inactive
O=C(O)C1CCN(c2nc(-c3ccccc3)nc3c2oc2ccccc23)CC1 | inactive
COc1cc(/C=C2/C(=O)ON=C2c2ccccc2)ccc1O | inactive
Cc1nn2c(N3CCN(C)CC3)c3c(nc2c1-c1ccccc1)CCCC3 | inactive

Compound | inhibition (negative values = inhibition)
C[C@H](NC(=O)OC(C)(C)C)c1nnc(SCC(=O)c2ccc(Cl)cc2)o1 | inactive
COc1cccc(OC)c1OCCCCCc1c(C)n[nH]c1C | inactive
O=C(COC(=O)CCCSc1nc2ccccc2[nH]1)NC(=O)NC1CCCC1 | inactive
COc1ccc(C(=O)NC(Cc2ccc(OC(=O)c3ccc(OC)cc3)cc2)C(=O)O)cc1 (stereo not drawn) | inactive
N#CC(C#N)=C(Nc1ccc(F)cc1)SCc1cccc(F)c1 | inactive
Cc1ccc(C(=O)NC2CCCCC2)cc1S(=O)(=O)N1CCCC1 | inactive
Cc1c(C(=O)OC(C)C)sc(NC(=O)c2cccnc2)c1C#N | inactive
Cc1cc(-c2ccccc2)n(-c2ccc(C(=O)N3CCN(c4ncccn4)CC3)cc2)n1 | inactive
Cc1cccc(C(=O)Nc2cccc(OCC(=O)O)c2)c1 | inactive
C/C(=N/NC(=O)c1cc(Cl)ccc1O)C12CC3CC(CC(C3)C1)C2 | inactive
COc1ccc(C2=Nn3c(nnc3C3CCCCC3)SC2)cc1OC | inactive
CCOC(=O)C1CCN(Cc2c(O)c3ccccc3oc2=O)CC1 | inactive
CCOC(=O)c1sc(NC(=O)CCN2C(=O)c3cccc([N+](=O)[O-])c3C2=O)c(C(=O)OCC)c1C | inactive
Oc1ccc(C[C@H]2NCCc3cc(O)c(O)cc32)cc1O | inactive
Cc1ccc(C)c(OCC(=O)Nc2ccc(S(=O)(=O)Nc3ccccn3)cc2)c1C | inactive
CN(CCC#N)C(=O)COC(=O)c1ccccc1C(=O)c1ccc(Cl)c([N+](=O)[O-])c1 | inactive
Cn1c(-c2sc3ccccc3c2Cl)n[nH]c1=S | inactive
CCN1CCN(CCNC(=O)c2ccc3nc(-c4cccc(C)c4)c(-c4cccc(C)c4)nc3c2)CC1 | inactive
O=[N+]([O-])c1cc(Cc2ccccc2)cc(C=Nc2ccc(N3CCOCC3)cc2)c1O | inactive
CC1CCCCC1NC(=S)Nc1ccc(SC(F)F)cc1 (stereo not drawn) | inactive
Cc1cc(CN(C)C(=O)c2cc(COc3ccc(F)cc3Cl)on2)n[nH]1 | inactive
C=CCSc1nc2ccccc2n1Cc1nnc(-c2cccs2)o1 | inactive

Compound | inhibition (negative values = inhibition)
Cc1cc(OC(C)C(=O)Nc2ccc(S(=O)(=O)Nc3onc(C)c3C)cc2)cc(C)c1Cl (stereo not drawn) | inactive
O=C1NC(c2ccccc2)=C(c2ccc3ccccc3n2)C(c2ccncc2)N1 (stereo not drawn) | inactive
Cc1nn(-c2ccccc2)c2[nH]c(=O)cc(C(F)(F)F)c12 | inactive
Cc1ccc(C(=O)NC2CCCC(C)C2C)cc1S(=O)(=O)N1CCCCC1 (stereo not drawn) | inactive
CCCN(CCC)c1nc(N(CCC)CCC)[nH]c(=O)n1 | inactive
CCc1ccc2oc(C(=O)NCC(c3ccc(OC)cc3)N3CCCCC3)c(C)c2c1 (stereo not drawn) | inactive
CC(Oc1ccccc1Cl)C(=O)Nc1ccc(S(=O)(=O)Nc2nccs2)cc1 (stereo not drawn) | inactive
COc1cc(CNc2ccc(N3CCCCC3)cc2)ccc1OCC(=O)NC(C)(C)C | inactive
CCOC(=O)N1CCC(NC(=O)C2CCCN(Cc3nc(-c4cccc(Cl)c4)oc3C)C2)CC1 (stereo not drawn) | inactive
Cc1ccccc1-n1c(C)cc(/C=N/NC(=O)c2ccc(CN3CCOCC3)cc2)c1C | inactive
c1ccc(CCNc2c3c(nc4ncnn24)CCC3)cc1 | inactive
CCCc1cc(NCC2CCCO2)n2c(nc3ccccc32)c1C#N (stereo not drawn) | inactive
CN(Cc1cccs1)c1ncnc2sccc12 | inactive
COc1ccc(-n2c(=S)[nH]c3cc(C(=O)NCCCN4CCOCC4)ccc3c2=O)cc1 | inactive
O=S(=O)(c1ccccc1F)N1CCN(CCc2ccccc2)CC1 | inactive
Cc1ccc(N2NC(=O)/C(=C\c3cc4c(cc3[N+](=O)[O-])OCO4)C2=O)cc1C | inactive
CCOC(=O)Cc1csc(NS(=O)(=O)c2ccc3c4c(cccc24)C(=O)N3CC)n1 | inactive
CC(C)(C)S(=O)(=O)/C(C#N)=N/Nc1ccc(Cl)cc1 | inactive
Oc1c(Cl)cc(Cl)cc1C=Nc1ccc2c(c1)OCCO2 | inactive
COc1cc(/C=C2/C(=O)c3cccc([N+](=O)[O-])c3C2=O)c(Br)cc1O | inactive
CCCOc1ccc(C(CC(=O)O)NC(=O)c2sc3ccccc3c2Cl)cc1 (stereo not drawn) | inactive
Oc1cccc(C(O)CNCc2ccc(OCc3ccc(Cl)cc3Cl)cc2)c1 (stereo not drawn) | inactive

Compound | inhibition (negative values = inhibition)
COc1ccc(C(C(=O)NC2CCCCC2)N(C(=O)c2ccco2)c2ccccc2C(C)=O)cc1OC (stereo not drawn) | inactive
O=C(c1ccc(Cl)c(S(=O)(=O)N2CCCC2)c1)N1CCN(c2ccccc2)CC1 | inactive
CCc1cc2c(NCc3ccco3)ncnc2s1 | inactive
CCN1CCn2c3c(c4cc(Cl)ccc42)CCCC31 (stereo not drawn) | inactive
CC1CCCCC1NC(=O)c1c(O)nc2ccccn2c1=O (stereo not drawn) | inactive
CC#CCN(CC#CC)S(=O)(=O)c1ccc(-n2cnnn2)c(OC)c1 | inactive
CN(C)CCCn1c(=O)n(C2CCCCC2)c(=O)c2c3c(sc21)CCCCC3 | inactive
CC1(C(=O)N2CCC(CC3CC(c4ccc(Cl)cc4)=NO3)(C(=O)NCC3CCCCC3)CC2)CC1 (stereo not drawn) | inactive
Cc1cccc(C(=O)NNC(=S)NC(=O)c2ccccc2)c1 | inactive
C=C(C)CSc1nnc(CCCCCNC(=O)OC(C)(C)C)o1 | inactive
CCN(Cc1ccccc1)S(=O)(=O)c1cc(C(=O)NC2CCCCCC2)ccc1OC | inactive
Cc1ccc(C(=O)CSc2nnc(-c3ccco3)n2C)cc1 | inactive
Cc1csc(NC(=O)CSc2nc(C(C)C)nc3ccccc23)n1 | inactive
O=C(CSc1nnc(-c2ccncc2)n1Cc1ccco1)c1ccc(Cl)cc1 | inactive
COc1cccc(/C=C2\SC(=S)N(NS(=O)(=O)c3ccccc3)C2=O)c1OC | inactive
c1ccc(CN2CCN(c3nc4ccccc4n4cnnc34)CC2)cc1 | inactive
O=C(NC1CCCCC1)C(c1ccc2ncccc2c1)N(Cc1ccccc1)C(=O)c1ccc2c(c1)OCCO2 (stereo not drawn) | inactive
CC1(C)CC(=O)C=C(Nc2cccc(Cl)c2Cl)C1 | inactive
Cc1ccc(S(=O)(=O)N2[C@@H](c3ccc(Cl)cc3)C(C(=O)O)=CC[C@H]2c2ccc(Cl)c(Cl)c2)cc1 | inactive

same assay, conditions: HEK293-CHT, choline-induced depolarization, cells express LV-AA mutant CHT

Compound | IC50
CC(C)c1nnc(NC(=O)c2nc(S(=O)(=O)Cc3ccccc3)ncc2Cl)s1 | 4.47 µM
CCCn1nc(NS(=O)(=O)c2cccc3nonc23)c2cc3cccc(C)c3nc21 | 3.55 µM
